Legend:
[1] = target: T1, P-gp (P-glycoprotein, human MDR1) (Homo sapiens, UniProt P08183); assay: P-gp (P-glycoprotein) assay, bidirectional transcellular transport in LLC-PK1 and L-MDR1 cells; assay type: in vitro ADME; settings: ER = PappBA/PappAB, read-out: P-gp human, efflux ratio: substrate category
T1 construct: host or cells: LLC-PK1 (porcine kidney epithelial) cells, L-MDR1
Description: P-gp (P-glycoprotein) Assay Cell Lines Used for Transport Experiments
The LLC-PK1 cell line (ATCC #CL-101) is a porcine kidney epithelial cell line. The MDR1 (Human multidrug resistance protein 1) transfected cell lines were obtained from Dr. A. Schinkel, The Netherlands Cancer Institute (Amsterdam, The Netherlands). All cell lines were cultured on permeable inserts (96-insert plates Millipore, 0.11 cm^2 area, pore size 0.4 μm) at 0.73*10^6 cells/ml. Transport measurements were performed at day 4 after seeding. Tightness of the cell monolayer was controlled via the permeability of the extracellular marker lucifer yellow (10 μM).
In Vitro Transport Experiments
Bidirectional transcellular transport using LLC-PK1 and L-MDR1 LLC-PK1 cells exogenously expressing the human MDR1)
The experiments were performed on a TECAN automated liquid handling system. Briefly, medium was removed from all compartments and the medium of receiver side was replaced with culture medium. The trans-cellular transport measurements were initiated by adding the substrate together with extracellular marker lucifer yellow to the donor side. Inhibitors were added to both sides (1 μM elacridar). Transport experiments were performed both in the basolateral-to-apical and apical-to-basolateral directions with 3 wells each. The plates were incubated at 37° C. and 5% CO2 in a Liconic incubator. Samples were taken from the donor and the opposite (acceptor) side after 2 hours incubation. Concentrations of substrate in both compartments were determined by scintillation counting (digoxin) or by LC-MS/MS. The extracellular marker (lucifer yellow) was quantified using a spectrafluor plus reader at 430/535 nm (Ex/Em). In each experiment 3 different inserts were used for each condition and a mean was calculated.
Bidirectional transcellular transport using LLC-PK1 and L-MDR1 cells
For the transcellular transport, the following equation was used for data evaluation: […]
Where Papp, A, C0, and dQ/dt represent the apparent permeability, the filter surface area, the initial concentration, and the amount transported per time period, respectively.
Transport efflux ratios (ER) were calculated as follows: […]
Where PappBA is the permeability value in the basolateral-to-apical direction, and PappAB the permeability value in the apical-to-basolateral direction. Papp were not corrected for flux of the extracellular marker lucifer yellow, which was used to assess the quality of the cell monolayers.

[2] = in vivo effect; settings: % of control @ 30 mg/kg p.o.
[3] = Detection of glutathione conjugates; assay type: in vitro ADME, human; parameters: key: NF: in vitro no significant adduct formation relative to control; settings: in vitro, relative to control
Excerpt: Detection of Glutathione Conjugates
The assay conditions for the detection of glutathione conjugates follow the procedure described by C. M. Dieckhaus et al.

[4] = target: T2, cathepsin D (from human liver) (Homo sapiens, UniProt P07339); assay: Cathepsin D fluorescent substrate kinetic assay; assay type: biochemical; settings: pH 5.5, substrate […]-MR121
T2 construct: cathepsin D (from human liver, Calbiochem) diluted in assay buffer; purchased Calbiochem; host or cells: purified from human liver
Excerpt: Cathepsin D and Cathepsin E Fluorescent Substrate Kinetic Assays
The MR121 fluorescence assays described below are based on the fact that MR121 forms a non-fluorescent ground state complex with tryptophan. In solution this formation occurs at millimolar concentrations of tryptophan. The mechanism can be used to design a generic biochemical assay for proteases. A substrate peptide is labeled at the N-terminus with tryptophan and at the C-terminus with the fluorophore MR121 (for cathepsin D the 10 amino acid peptide […]-MR121 was used; for cathepsin E, MR121-[…] was used). In absence of protease activity, the substrates remain intact and the MR121 fluorescence is reduced by the high local Trp-concentration. If the substrates are cleaved by the enzymes the MR121 fluorescence is recovered.
The fluorescent substrate cathepsin D and cathepsin E kinetic assays were performed at room temperature in 384-well microtiter plates (black with clear flat bottom, non binding surface plates from Corning) in a final volume of 51 μl. The test compounds were serially diluted in DMSO (15 concentrations, ⅓ dilution steps) and 1 μl of diluted compounds were mixed for 10 min with 40 μl of cathepsin D (from human liver, Calbiochem) diluted in assay buffer (100 mM sodium acetate, 0.05% BSA, pH 5.5; final concentration: 200 nM) or with 40 μl of recombinant human cathepsin E (R&D Systems) diluted in assay buffer (100 mM sodium acetate, 0.05% BSA, pH 4.5; final concentration: 0.01 nM). After addition of 10 μl of the cathepsin D substrate […]-MR121 diluted in cathepsin D assay buffer (final concentration: 300 nM) or […] cathepsin E substrate MR121-[…] diluted in cathepsin E assay buffer (final concentration: 300 nM), the plates were strongly shaken for 2 minutes. The enzymatic reaction was followed in a plate: vision reader (Perkin Elmer) (excitation wavelength: 630 nm; emission: 695 nm) for at least 30 minutes in a kinetic measurement detecting an increase of MR121 fluorescence during the reaction time. The slope in the linear range of the kinetic was calculated and the IC50 of the test compounds were determined using a four parameter equation for curve fitting.

T2 sequence (P07339 65-162 limits assumed): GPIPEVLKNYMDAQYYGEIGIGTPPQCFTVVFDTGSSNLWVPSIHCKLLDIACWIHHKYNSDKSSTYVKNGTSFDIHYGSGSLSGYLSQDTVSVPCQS
T2 sequence (P07339 169-412 limits assumed): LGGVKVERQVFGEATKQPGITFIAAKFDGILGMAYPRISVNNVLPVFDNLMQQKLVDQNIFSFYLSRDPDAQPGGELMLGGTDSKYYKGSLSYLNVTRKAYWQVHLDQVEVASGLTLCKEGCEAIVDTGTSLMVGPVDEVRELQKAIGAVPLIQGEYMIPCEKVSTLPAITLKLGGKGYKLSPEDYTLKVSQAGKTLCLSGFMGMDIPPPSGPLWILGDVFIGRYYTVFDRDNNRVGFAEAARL
T1 sequence (P08183 whole entry): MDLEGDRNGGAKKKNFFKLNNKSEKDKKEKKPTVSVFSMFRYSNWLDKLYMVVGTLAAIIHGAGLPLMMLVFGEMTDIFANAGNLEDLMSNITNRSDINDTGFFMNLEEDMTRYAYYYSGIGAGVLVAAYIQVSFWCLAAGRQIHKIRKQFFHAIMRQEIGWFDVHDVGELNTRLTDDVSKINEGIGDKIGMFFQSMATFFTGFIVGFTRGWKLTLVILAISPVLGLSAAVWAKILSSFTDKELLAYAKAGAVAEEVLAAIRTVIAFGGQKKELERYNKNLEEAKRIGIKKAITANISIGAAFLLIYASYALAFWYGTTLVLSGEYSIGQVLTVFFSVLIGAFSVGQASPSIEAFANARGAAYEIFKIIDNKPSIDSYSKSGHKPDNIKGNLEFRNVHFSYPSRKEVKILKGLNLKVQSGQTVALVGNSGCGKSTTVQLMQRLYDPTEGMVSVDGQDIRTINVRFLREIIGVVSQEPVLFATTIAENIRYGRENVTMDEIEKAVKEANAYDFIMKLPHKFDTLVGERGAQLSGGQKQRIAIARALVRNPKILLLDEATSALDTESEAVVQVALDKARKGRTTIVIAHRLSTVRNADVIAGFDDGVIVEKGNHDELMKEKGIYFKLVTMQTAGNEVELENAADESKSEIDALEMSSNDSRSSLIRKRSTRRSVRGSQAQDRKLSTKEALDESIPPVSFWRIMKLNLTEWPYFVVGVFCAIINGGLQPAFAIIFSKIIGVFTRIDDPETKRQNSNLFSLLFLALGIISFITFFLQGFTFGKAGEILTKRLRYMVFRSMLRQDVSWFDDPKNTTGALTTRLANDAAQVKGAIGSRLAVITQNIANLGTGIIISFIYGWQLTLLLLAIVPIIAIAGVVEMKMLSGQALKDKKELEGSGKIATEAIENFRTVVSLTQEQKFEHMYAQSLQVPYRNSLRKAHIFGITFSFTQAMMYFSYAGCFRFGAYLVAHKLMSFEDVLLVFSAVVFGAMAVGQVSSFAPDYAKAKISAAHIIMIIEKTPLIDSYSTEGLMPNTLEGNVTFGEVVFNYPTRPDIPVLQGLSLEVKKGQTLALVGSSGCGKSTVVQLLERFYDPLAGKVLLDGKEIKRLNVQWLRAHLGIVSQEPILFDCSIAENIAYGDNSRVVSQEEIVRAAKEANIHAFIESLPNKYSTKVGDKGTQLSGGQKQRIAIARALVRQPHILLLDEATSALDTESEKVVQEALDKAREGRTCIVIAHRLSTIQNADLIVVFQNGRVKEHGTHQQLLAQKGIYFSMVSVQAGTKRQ

| Structure (SMILES) | efflux ratio at 2 h [1] | GSH human (glutathione adduct formation) [3] | IC50 [4] [µM] | in vivo effect [2] |
| --- | --- | --- | --- | --- |
| N#Cc1ccc(C(=O)Nc2ccc(F)c([C@@]3(CF)N=C(N)O[C@@H]4CC(F)(F)C[C@@H]43)c2)nc1 [Example 3, 5-Cyano-pyridine-2-carboxylic acid [(S)-3-((1R,2R)-2-amino-6,6-difluoro-4-fluoromethyl-4,4a,5,6,7,7a-hexahydro-cyclopenta[e][1,3]oxazin-4-yl)-4-fluoro-phenyl]-amide] | < 3 | NF | > 200 | A (less than 50% of control @ 30 mg/kg p.o.) |
| NC1=N[C@](CF)(c2cc(NC(=O)c3cnc(C(F)F)cn3)ccc2F)[C@H]2CC(F)(F)C[C@H]2O1 [Example 24, 5-Difluoromethyl-pyrazine-2-carboxylic acid [(S)-3-((1R,2R)-2-amino-6,6-difluoro-4-fluoromethyl-4,4a,5,6,7,7a-hexahydro-cyclopenta[e][1,3]oxazin-4-yl)-4-fluoro-phenyl]-amide] | < 3 | NF | > 200 | A (less than 50% of control @ 30 mg/kg p.o.) |
| N#Cc1ccc(C(=O)Nc2ccc(F)c([C@@]3(C(F)F)N=C(N)O[C@@H]4CC(F)(F)C[C@@H]43)c2)nc1 [Example 36, 5-Cyano-pyridine-2-carboxylic acid [(S)-3-((1R,2R)-2-amino-4-difluoromethyl-6,6-difluoro-4,4a,5,6,7,7a-hexahydro-cyclopenta[e][1,3]oxazin-4-yl)-4-fluoro-phenyl]-amide] | < 3 | NF | > 200 | A (less than 50% of control @ 30 mg/kg p.o.) |

The next lines start with results.

| efflux ratio at 2 h [1] | GSH human (glutathione adduct formation) [3] | IC50 [4] [µM] | Structure (SMILES) | in vivo effect [2] |
| --- | --- | --- | --- | --- |
| < 3 | NF | 93 | NC1=N[C@](CF)(c2cc(NC(=O)c3ccc(F)cn3)ccc2F)[C@H]2CC(F)(F)C[C@H]2O1 [Example 7, 5-Fluoro-pyridine-2-carboxylic acid [(S)-3-((1R,2R)-2-amino-6,6-difluoro-4-fluoromethyl-4,4a,5,6,7,7a-hexahydro-cyclopenta[e][1,3]oxazin-4-yl)-4-fluoro-phenyl]-amide] | A (less than 50% of control @ 30 mg/kg p.o.) |
| < 3 | NF | > 150 | COc1cnc(C(=O)Nc2ccc(F)c([C@@]3(C(F)F)N=C(N)O[C@@H]4CC(F)(F)C[C@@H]43)c2)cn1 [Example 42, 5-Methoxy-pyrazine-2-carboxylic acid [(S)-3-((1R,2R)-2-amino-4-difluoromethyl-6,6-difluoro-4,4a,5,6,7,7a-hexahydro-cyclopenta[e][1,3]oxazin-4-yl)-4-fluoro-phenyl]-amide] | A (less than 50% of control @ 30 mg/kg p.o.) |
